In article PMC5597618, “Identification and characterization of the novel reversible and selective cathepsin X inhibitors” (Scientific Reports, 2017):
Where two headings read alike, the source gives them in different places.

Experiments:
cathepsin X [1] = target: T1, cathepsin X (Homo sapiens, UniProt Q9UBR2); assay: Determination of relative inhibition of cathepsin X; type: biochemical; design: made in house; host or cells: Pichia pastoris
Description: (§1) Recombinant or native human cathepsins were used: recombinant cathepsin X and cathepsin S were expressed in Pichia pastoris, recombinant cathepsins B and L in E. coli, [43], native cathepsin H was isolated from human liver. Assay buffers for determining activities of cathepsins X and L consisted of 100 mM sodium acetate buffer, pH 5.5, for cathepsins H, S and B (endopeptidase activity) of 100 mM phosphate buffer pH 6.8, 6.5 and 6.0, respectively and for cathepsin B (exopeptidase activity) of 60 mM acetate buffer pH 5.0. Each assay buffer contained 0.01% Triton X-100 to prevent false positive inhibition due to aggregation of compounds[45], 5 mM cysteine, 1.5 mM EDTA and 0.1% PEG 8000. Enzymes were activated at 37 °C for 5 min before the assays.
Abz-FEK(Dnp)-OH was used as cathepsin X specific substrate in activity assays. 90 μL of activated cathepsin X (20 nM) was added to a black 96-well plate with 5 μL of substrate (3.25 μM final concentration) and 5 μL of the compound (50 μM final concentration). The reaction was monitored continuously at 420 nm ± 10 nm with excitation at 320 nm ± 20 nm and at 37 °C. Relative inhibition (%) was calculated with the equation (1 − v i/v 0) × 100, where v i is reaction velocity in the presence of the compound and v 0 is reaction velocity without the compound.

cathepsin X [2] = target: T1, cathepsin X; assay: Determination of Ki values and inhibition mechanism against cathepsin X (Abz-FEK(Dnp)-OH substrate); type: biochemical; design: made in house; host or cells: Pichia pastoris; settings: for Inhibition mechanism: ENZO
Description: as §1
Ki was determined by measuring the initial rate of hydrolysis at three different substrate concentrations (Supplementary Table S2) in the presence of seven different compound concentrations (0, 20, 40, 60, 80, 100 and 200 μM). 90 μL of the activated cathepsin was added to a black 96-well plate with 5 μL of the substrate and 5 μL of the compound. Formation of the fluorescent degradation product was monitored continuously at 460 nm ± 10 nm with excitation at 380 nm ± 20 nm (for AMC substrates) and, as noted above for Abz substrates, at 37 °C. All measurements were performed twice and in duplicate. The resulting data were analyzed by non-linear regression using the software SigmaPlot®, Enzyme Kinetics Module™ 1.3 and were fitted to the equation v = v max [S]/([S] (1 + [I]/αK i ) + K m (1 + [I]/K i )) (first group of compounds). For Ki determination against cathepsin X for the compounds from the second group, progress curves in the absence and presence of each putative inhibitor were fitted to the reaction mechanism presented in Fig. 3b. In this case the resulting data as well as reactivation curves were fitted to the equation system presented in Fig. 3c using ENZO application. For calculation of kinetic parameters from reaction progress curves the fluorescence coefficient for conversion of arbitrary fluorescence units to concentration was first determined. The fluorescence coefficient was calculated as the slope from the plot of initial substrate concentration vs. height of the plateau of the progress curve after complete hydrolysis of increasing concentrations of substrate, using linear regression.
Supplementary Table S2. Substrates used for the various cathepsins and their concentrations […]
Enzyme Substrate Concentration (µM) Reference/Company cathepsin X Abz-FEK(Dnp)-OH 3.25, 6.5, 13 Puzer et al.3 cathepsin B - endopept. Z-RR-AMC 60, 180, 360 Bachem cathepsin B - exopept. Abz-GIVRAK(Dnp)-OH 1, 3, 6 Bachem cathepsin S Z-VVR-AMC 0.5, 1, 1.5 Biomol cathepsin L Z-FR-AMC 0.5, 1, 4 Bachem cathepsin H Z-R-AMC 20, 80, 160 Biomol […]

[3] = second group, 50 μM compound, 1 h preincubation, read-out: % inhibition (1 h preincubation)
[4] = second group, progress curve analysis with ENZO
[5] = screening at 50 μM compound, read-out: relative inhibition of cathepsin X
[6] = first group, SigmaPlot non-linear regression at 3 different substrate concentrations

T1 sequence (Q9UBR2 62-303): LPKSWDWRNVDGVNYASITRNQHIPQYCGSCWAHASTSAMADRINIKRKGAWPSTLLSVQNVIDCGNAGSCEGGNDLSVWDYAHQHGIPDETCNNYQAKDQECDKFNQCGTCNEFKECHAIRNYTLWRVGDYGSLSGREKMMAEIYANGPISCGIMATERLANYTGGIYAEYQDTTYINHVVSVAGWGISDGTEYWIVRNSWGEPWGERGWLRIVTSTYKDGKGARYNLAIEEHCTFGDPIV

Row | Compound | inhibition at 50 µM (cathepsin X [1]; [3]) [%] | other results
1 | COc1ccccc1-n1cnnc1SCC(=O)c1ccc2c(c1)OCCO2 [Compound 24, 1-(2,3-Dihydrobenzo[b][1,4]dioxin-6-yl)-2-((4-(2-methoxyphenyl)-4H-1,2,4-triazol-3-yl)thio)ethan-1-one] | 73 | –
2 | O=C(CSc1nnc(N2CCCC2)n1C1CC1)c1ccc2c(c1)OCCO2 [Compound 14, 2-((4-Cyclopropyl-5-(pyrrolidin-1-yl)-4H-1,2,4-triazol-3-yl)thio)-1-(2,3-dihydrobenzo[b][1,4]dioxin-6-yl)ethanone] | 74 | Inhibition mechanism (cathepsin X [2]; second group): competitive; Ki (cathepsin X [2]; [4]): 5.41 ± 0.19 µM; inhibition at 50 µM (cathepsin X [1]; [5]): > 70%
3 | COc1ccccc1C(=O)CSc1n[nH]c(N)n1 [Compound 25, 2-((5-Amino-1H-1,2,4-triazol-3-yl)thio)-1-(2-methoxyphenyl)ethan-1-one] | 50 | –
4 | COc1ccc(C(=O)C(C)Sc2nncn2C)cc1OC (stereo not drawn) [Compound 18, 1-(3,4-Dimethoxyphenyl)-2-((4-methyl-4H-1,2,4-triazol-3-yl)thio)propan-1-one] | 25 | –
5 | O=C(NC1CC2C(=O)NCC(=O)N2C1)c1ccc2cccnc2n1 (stereo not drawn) [Compound 5] | – | Ki (cathepsin X [2]; [6]): 136 µM; inhibition at 50 µM (cathepsin X [1]; [5]): 60 to 75%
6 | O=C(CSc1nncn1-c1ccccc1)c1ccc2c(c1)OCCO2 [Compound 23, 1-(2,3-Dihydrobenzo[b][1,4]dioxin-6-yl)-2-((4-phenyl-4H-1,2,4-triazol-3-yl)thio)ethan-1-one] | 72 | –
7 | Cc1[nH]c2ccccc2c1C(=O)C(C)Sc1n[nH]c(N)n1 (stereo not drawn) [Compound 15, 2-((5-Amino-1H-1,2,4-triazol-3-yl)thio)-1-(2-methyl-1H-indol-3-yl)propan-1-one] | 23 | –
8 | Nc1nc(SCC(=O)c2ccc(Oc3ccccc3)cc2)n[nH]1 [Compound 9, 2-((5-Amino-1H-1,2,4-triazol-3-yl)thio)-1-(4-phenoxyphenyl)ethanone] | 27 | –
9 | N#Cc1ccc(C(=O)CSc2n[nH]c(N)n2)cc1 [Compound 16, 4-(2-((5-Amino-1H-1,2,4-triazol-3-yl)thio)acetyl)benzonitrile] | 15 | –
10 | Cc1[nH]c2ccccc2c1C(=O)CSc1nnc[nH]1 [Compound 6, 2-((4H-1,2,4-triazol-3-yl)thio)-1-(2-methyl-1H-indol-3-yl)ethanone] | 44 | –
11 | O=C(CSc1nc(C2CC2)n[nH]1)c1ccc2c(c1)OCCO2 [Compound 17, 2-((3-Cyclopropyl-1H-1,2,4-triazol-5-yl)thio)-1-(2,3-dihydrobenzo[b][1,4]dioxin-6-yl)ethan-1-one] | 72 | Inhibition mechanism (cathepsin X [2]; second group): competitive; Ki (cathepsin X [2]; [4]): 7.35 ± 0.28 µM; inhibition at 50 µM (cathepsin X [1]; [5]): > 70%
12 | O=C(CSc1nc[nH]n1)c1ccc2c(c1)OCCO2 [Compound 11, 2-((1H-1,2,4-triazol-3-yl)thio)-1-(2,3-dihydrobenzo[b][1,4]dioxin-6-yl) ethanone] | 72 | –
13 | Nc1cc(N)nc(SCC(=O)c2ccc3c(c2)OCCO3)n1 [Compound 19, 2-((4,6-Diaminopyrimidin-2-yl)thio)-1-(2,3-dihydrobenzo[b][1,4]dioxin-6-yl)ethan-1-one] | 27 | –
14 | N#Cc1c(NC(=O)c2cc(OCCN)ccc2Cl)sc2c1CCCC2 [Compound 3, 5-(2-Aminoethoxy)-2-chloro-N-(3-cyano-4,5,6,7-tetrahydrobenzo[b]thiophen-2-yl)benzamide] | – | Ki (cathepsin X [2]; [6]): 260 ± 31.9 µM; inhibition at 50 µM (cathepsin X [1]; [5]): 60 to 75%
15 | COc1ccc(C(=O)CSc2n[nH]c(N)n2)cc1F [Compound 21, 2-((5-Amino-1H-1,2,4-triazol-3-yl)thio)-1-(3-fluoro-4-methoxyphenyl)ethan-1-one] | 39 | –
16 | COc1cc2c(cc1OC)CN(C(=O)CSc1n[nH]c(N)n1)CC2 [Compound 7, 2-((5-Amino-1H-1,2,4-triazol-3-yl)thio)-1-(6,7-dimethoxy-3,4-dihydroisoquinolin-2(1 H)-yl)ethanone] | 0 | relative inhibition of cathepsin X (cathepsin X [1]; screening at 50 μM compound): devoid of any inhibitory activity
17 | Cc1ccc(C(=O)CSc2n[nH]c(N)n2)cc1 [Compound 13, 2-((5-Amino-1H-1,2,4-triazol-3-yl)thio)-1-(p-tolyl)ethanone] | 22 | –
18 | Nc1nc(SCC(=O)c2ccc3c(c2)OCO3)n[nH]1 [Compound 8, 2-((5-Amino-1H-1,2,4-triazol-3-yl)thio)-1-(benzo[d][1,3]dioxol-5-yl) ethanone] | 67 | –
19 | Nc1nc(SCC(=O)c2ccc(-c3ccccc3)cc2)n[nH]1 [Compound 10, 1-([1,1′-Biphenyl]-4-yl)-2-((5-amino-1H-1,2,4-triazol-3-yl)thio)ethanone] | 64 | –
20 | N#Cc1c(NC(=O)c2cc(OCCCN)ccc2Cl)sc2c1CCCC2 [Compound 4, 5-(3-Aminopropoxy)-2-chloro-N-(3-cyano-4,5,6,7-tetrahydrobenzo[b]thiophen-2-yl)benzamide] | – | Ki (cathepsin X [2]; [6]): 230 ± 2.9 µM; inhibition at 50 µM (cathepsin X [1]; [5]): 60 to 75%
